From patent US9326512B2, “Synergistic combination of a flurochloridone compound and zinc pyrithione for dry film protection” (Rohm and Haas Company, priority 2013, dated 2016)

Tested on: Chlorella sp. ATCC 7516
Assay: Algal efficacy testing of dry paint films (modified ASTM 5589, 6-well plates)
Assay type: cell-based
Details: 3 weeks; for Total conc (lowest total biocide concentration in paint passing ≧75% inhibition): pass level ≧75% algal growth inhibition, dry paint film coupon
Method: These paints were then diluted with an antimicrobial free acrylic/silicone based paint and mixed to prepare targeted concentrations of antimicrobial compounds for the testing. The total biocides concentrations tested were 125, 250, 500, 1000, 2000 and 5000 ppm. After biocides addition or dilution, the paints were mixed 90 seconds with the horse power shaker (AXEL 75M3372/Agitateur SO-10MI) until uniformity was achieved. Paints containing different antimicrobial compounds at the same levels were mixed together in order to obtain the desired ratio of antimicrobial compounds. After one day, the paints were applied to Schleicher & Schuell filter paper at 280 μm wft and dried for 3 days at room temperature avoiding direct exposure to sunlight. Square discs (1.6 cm×1.6 cm) were cut out from each panel and were used as the substrate for algal efficacy tests. This sample size allowed for an agar border when the sample disc was placed into the well of the test plate.
Algal efficacy was tested according to modified ASTM 5589 which is a standard accelerated test method for determining resistance of various coatings (including paints) to algal defacement. To accommodate for high-throughput screening, this method was scaled down from petri dishes to 6-well plates. Bold Modified Basal Freshwater Nutrient Solution was used as growth medium. A single coated filter paper coupon was placed with a pair of sterile forceps at the center of the agar plug (on top) with the painted surface facing upwards.
Each well that contains a tested coupon was inoculated with 1750 μl of algal suspensions (1×10^6 cfu/ml) making sure that the whole surface (paint film as well as the agar surrounding it) was evenly covered. The plates were incubated at room temp (21° C.-25° C.) with cyclic exposure to light and dark phases, for a period of three weeks.
At the end of the three week incubation period, the samples were scored for percent inhibition regarding color intensity compared to the blank sample.
The Synergy Index calculation was performed as follows.
The SI is calculated based on F. C.
SI value of <1 in the formula indicates a synergism of the blended biocides exists.
The minimal targeted inhibition was set at 75%, meaning a coupon with at least 75% algal growth inhibition was considered as a pass.

SMILES	Total conc (lowest total biocide concentration in paint passing ≧75% inhibition) [ppm]	% inhibition (total conc 500 ppm in paint) [%]	inhibition at 5000 ppm (504 h, total conc 5000 ppm in paint) [%]
[O-][n+]1ccccc1[S][Zn][S]c1cccc[n+]1[O-] [ZnPT, bis(2-pyridylthio)zinc 1,1′-dioxide]	500	95	–
O=C1C(Cl)C(CCl)CN1c1cccc(C(F)(F)F)c1 (stereo not shown) [Flurochloridone, 3-chloro-4-(chloromethyl)-1-[3-(trifluoromethyl)phenyl]-2-pyrrolidinone]	5000	–	85
